From patent US10722582B2, “Targeted antimicrobial photodynamic therapy” (Purdue Research Foundation, priority 2018, dated 2020)
Marks after values point to notes of the source that are not given here.

Experiments:
[1] = system: S. aureus; assay: Antibacterial activity assay with LED light; type: cell-based, Staphylococcus aureus
Procedure: Antibacterial activity assay general protocol: Used LED light to test conditions. Bacteria were grown in TS broth, followed by 3 mM bipyridine in TS broth until log phase. Bacteria were then diluted with PBS, to OD 0.1 (˜10^) and then to ˜10^7 cfu/mL. 100 uL of bacteria were placed in 96 well plates with the appropriate GaPpIX concentration. 2× serial dilutions were then done to obtain other GaPpIX concentrations. Each concentration was done in triplicate. Bacteria were left incubating and irradiating for different amount of times at different light powers or left in the dark. 10× Serial dilutions were done and bacteria were plated for colony counting using the drop-plate technique. Colonies were counted after 24 hours. As reported herein, a 3-log reduction equals measurable antimicrobial action; a 6-log reduction equals total eradication.
Stock solution preparation (AVM-3-36, 10 nm AgNP). Prepared a solution of (AVM-2-273) GaPpIX-apoHb 1 mg/mL in MP H2O, deaerated. Took 10 mL of 10 nm AgNPs, centrifuged at 900 G for 5 min (Beckman, 3100 RPM), took supernantant and added 200 uL of GaPpIXHb. After overnight, centrifuged 3000 RPM g for 5 minutes (Beckman). Took supernantant and centrifuged using a 100 K CentriCon tube at 4000 RPM for 5 minutes, 3×. Added 15 mM borate buffer to NPs. Based on calibration curve, the stock solution is 1.94 ug/mL AgNP, so stock: 79 μg/mL AgNP, 10.37 μg/mL GaPpIXHb, 0.446 μg/mL GaPpIX (refer to AVM-2-293A and AVM-3-3).
The following antibacterial activity measurements were assayed in the presence of AgNP.

[2] = system: S. epidermis (ATCC 155); assay: aPDI with CFL irradiation (406 nm), planktonic bacteria, drop-plate colony count; type: cell-based, Staphylococcus epidermidis; details: for potency relative to dark toxicity (0 min exposure): 15 min CFL, 3-log reduction
Procedure: (§1) All bacterial strains were cultured at 37° C. in an aerobic atmosphere unless otherwise noted. […] Bacterial counts were estimated in units of cfu/mL by plating serial dilutions onto agar plates, followed by incubation for 16 hours at 37° C. […] Further details and variations on iron-deficient culture conditions are provided in Supporting Information.
(§2) Antimicrobial assays were performed on planktonic bacteria at 10^7 cfu/mL with variable exposure times to CFL irradiation, followed by plating on agar and incubation at 37° C. […] The irradiated bacteria were plated onto agar in serial tenfold dilutions (10^7-10^1 cfu/mL); controls included one set of wells without photosensitizer, and one set of wells with photosensitizer but without 15 min irradiation, prior to plating (dark toxicity). Bacterial counts were determined by the drop-plate method using TS-agar plates, and reported in colony-forming units per milliliter (cfu/mL).
(§3) The irradiation source consisted of a 20-W compact fluorescent lightbulb (CFL; Sunlite SL20/BLB) housed in an ellipsoidal reflector dome.

[3] = system: S. aureus (PCI 1203); assay: Competitive hemin uptake assay (fluorescence microscopy); type: cell-based, Staphylococcus aureus; details: standard conditions (TS media); no background subtraction
[4] = system: S. aureus (PCI 1203); assay: as above; type: cell-based, Staphylococcus aureus; details: for Fluorescence after 15 min / Fluorescence after 15 min exposure + 1 equiv. hemin: Fe-deficient conditions (TS media containing 3 mM bipy), no background subtraction
Procedure: To elucidate the relevant structural features for the specific uptake of Ga-PpIX by S. aureus, we performed a competitive uptake assay using one equivalent of hemin against Ga-PpIX, PpIX, and eleven other fluorescent PpIX derivatives, with evaluation by fluorescence microscopy after 15 minutes of co-incubation (FIG. 5 and Table 4). These studies were partly guided by insights taken from the X-ray structures of hemin and Ga-PpIX within the binding pocket of IsdH: (i) coordination of the metal center by an apical tyrosine residue; (ii) the flanking of vinyl groups on pyrrole rings A and B against nearby aromatic residues; and (iii) the extension and presumed hydration of the propionyl groups (rings C and D) outside of the binding pocket.
Bacteria were cultured and assayed in iron-deficient media unless otherwise noted. A stock solution of Ga-PpIX (14.6 μM) was prepared by dispersing 5 mg in 1 mL of 10% DMSO in PBS for 10 minutes in an ultrasonic cleaning bath protected from light, followed by filtration and 10× dilution in PBS just prior to use. Bacterial suspensions (0.5 mL) were treated with freshly prepared solutions of PpIX derivatives for specified periods (5-15 min), then harvested by centrifugation at 5.2 g for 5 minutes, redispersed twice in 0.5 mL deionized water, and centrifuged a third time. A 10-μL aliquot of concentrated bacteria was deposited onto a glass slide and dried in air for 20 min, then imaged by fluorescence microscopy as described above. For details on fluorescence image processing and quantitative analysis, see Supporting Information.
S. aureus (PCI 1203; ATCC 10537) was first cultured in standard TS broth, then in media containing 3 mM bipyridine. Bacteria were pelleted and washed with PBS buffer three times, then resuspended to a final concentration of 10^8 cfu/mL. Stock solutions of hemin and PpIX derivatives 1-13 were prepared at initial concentrations of 292 μM; hemin and fluorescent PpIX solutions were mixed in a 1:1 ratio (0.5 mL), then added to 0.5 mL of bacterial suspension and allowed to sit for 15 min at room temperature. For control studies, hemin or fluorophore solutions were substituted with PBS to maintain constant […]. Bacteria were harvested and washed as described above, then evaluated by fluorescence microscopy for relative uptake efficiency.
Darkfield and fluorescent images were acquired in succession, with the former used to map regions of interest (ROIs) by tracing the outlines of bacteria (FIG. 8). Three images were acquired for each sample; in each case, the tracing map was overlaid onto the fluorescence image to calculate pixel intensities within each ROI, using the mean pixel intensity for quantitative analysis. Bacteria were also imaged without treatment with PpIX analogs, most of which produced values close to that of background except for Salmonella enterica, which served as the upper limit of autofluorescence (cf. FIG. 4). Data collection and image analyses were performed by the same user to ensure consistency for comparative analysis.

[5] = system: S. aureus (PCI 1203; ATCC 10537); assay: aPDI with CFL irradiation (406 nm), planktonic bacteria, drop-plate colony count; type: cell-based, Staphylococcus aureus; details: for potency relative to dark toxicity (0 min exposure): 3-log reduction
Procedure: The aPDI properties of Ga-PpIX were compared against PpIX, whose photosensitizer activities are well known and whose optical profile is similar to that of Ga-PpIX (FIG. 2).
as §1, §2, §3

[6] = 0 min (dark), no irradiation (dark toxicity)
[7] = one equivalent of hemin, 15 minutes of co-incubation
[8] = 15 min CFL 406 nm, 12.4 mW/cm^2 (11.2 J/cm^2)

| Compound | concentration for 3-log reduction (measurable antimicrobial action) [1] [nM] | concentration for 6-log reduction (total eradication) [1] [nM] | Antimicrobial activity (minimum 3-log CFU reduction) [2, 6] [μM] | Antimicrobial activity (minimum 3-log CFU reduction) ([2]; 15 min CFL (11.2 J/cm^2)) [μM] | potency relative to dark toxicity (0 min exposure) [2] [x] | Eradication (6 log reduction) ([2]; No irradiation (dark toxicity)) [μM] | Fluorescence after 15 min [3] [a.u.] | Fluorescence after 15 min exposure + 1 equiv. hemin [3] [a.u.] | Fluorescence after 15 min [4] [a.u.] | Fluorescence after 15 min exposure + 1 equiv. hemin [4] [a.u.] | Antimicrobial activity (minimum 3-log CFU reduction) [5, 6] [μM] | Antimicrobial activity (minimum 3-log CFU reduction) [5, 8] [μM] | Eradication (6 log reduction) ([5]; 15 min CFL (11.2 J/cm^2)) [μM] | potency relative to dark toxicity (0 min exposure) ([5]; 15 min CFL) [x] | Eradication (6 log reduction) ([5]; No irradiation (dark toxicity)) [μM] | other results |
| --- | --- | --- | --- | --- | --- | --- | --- | --- | --- | --- | --- | --- | --- | --- | --- | --- |
| Ga(III)-protoporphyrin [Ga-PpIX (1)] | 59 | 235 | 146 | 0.57 | 256 | 146 | 18.09 | 15.08 | 42.55 | 10.0 | >60 | 0.47 | 7.5 | >128 | 120 | Eradication (6 log reduction) ([2]; 15 min CFL (11.2 J/cm^2), listed as Ga-PpIX): 1.1 μM; Eradication (6 log reduction) ([2]; 15 min CFL (11.2 J/cm^2), listed as GaPpIX (1)): 4.5 μM; bactericidal activity ([2]; CFL irradiation, clinical isolate from a skin lesion): 570 nM; reduction in fluorescence by competition with hemin [4, 7]: greater than 80%; Antimicrobial activity (minimum 3-log CFU reduction) ([5]; 5 min CFL 406 nm, 12.4 mW/cm^2 (3.7 J/cm^2)): 3.75 μM; Eradication (6 log reduction) ([5]; 5 min CFL (3.7 J/cm^2)): 15 μM; potency relative to dark toxicity (0 min exposure) ([5]; 5 min CFL): >16x; concentration for >99.9% reduction ([5]; 15 minutes of CFL irradiation): 470 nM; increase in potency relative to Ga-PpIX dark toxicity (>99.9% reduction) ([5]; 15 minutes of CFL irradiation): 128 fold; increase in potency relative to Ga-PpIX dark toxicity (total eradication, >6 log reduction) ([5]; 15 minutes of CFL irradiation): 16 fold |
| C=CC1=C(C)c2cc3[nH]c(cc4nc(cc5[nH]c(cc1n2)c(C)c5CCC(=O)O)C(CCC(=O)O)=C4C)c(C)c3C=C [PpIX (2), PpIX, reference compound] | 940 | 1900 | >146 | 4.5 | >32 | >146 | 11.90 | 10.15 | 16.70 | 9.4 | 36 | 1.1 | 2.3 | 32 | 73 | Antimicrobial activity (minimum 3-log CFU reduction) ([2]; 0 min (dark), no irradiation (dark toxicity), listed as PpIX): >146^d μM; Eradication (6 log reduction) ([2]; 15 min CFL (11.2 J/cm^2)): 9 μM; Antimicrobial activity (minimum 3-log CFU reduction) ([2]; 15 min CFL (11.2 J/cm^2), listed as PpIX): 4.6 μM; effect of hemin competition on uptake [4, 7]: moderately affected by hemin |
